Measured values published in PMC13308190, “Endothelial progenitor cell susceptibility to DNA damaging and DDR-modulating compounds determines endothelial differentiation accuracy” (Stem Cell Research & Therapy, 2026).

Tests used:
Type in all cases: cell-based, mouse
[1] = tested on: EC d4 (endothelial progenitor cells); assay: AlamarBlue cell viability; conditions: 48 h treatment
Procedure: (§1) Drug-induced cytotoxicity was monitored by analyzing cell viability using the AlamarBlue assay, which measures the reduction of the non-fluorescent dye resazurin (Sigma [Steinheim, Germany]) to fluorescent resorufin by living (i.e. metabolically active) cells. Fluorescence was measured in quadruplicates (excitation: 535 nm, emission: 590 nm (Tecan infinite 200, Tecan, Männedorf, Switzerland)). Relative cell viability of the untreated control was set to 100%.

mESC = assay: AlamarBlue cell viability; conditions: Mus musculus
Procedure: as §1

[2] = tested on: EC d4 (endothelial progenitor cells); assay: Western blot protein expression (densitometry); conditions: EC d4 48 h; for CHK1 protein / RAD51 protein / gH2AX protein / p-CHK2 protein / p-KAP1 protein / p-RPA32 protein / p-p53 protein: Fig 5D
How it was run: (§2)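 Whole-cell RIPA extracts (probe sonication) quantified by DC assay; 20 µg protein resolved by SDS-PAGE, blotted to nitrocellulose. Blocked 1 h RT in 5% milk or BSA/TBST; primary antibodies 1:500–5000 overnight 4 °C, peroxidase secondary 1:2000 2 h RT. Chemiluminescent bands imaged, levels by densitometry.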

[3] = tested on: EC d6 (endothelial-like cells); assay: Western blot protein expression (densitometry); conditions: EC d6 24 h; for CHK1 protein / RAD51 protein / gH2AX protein / p-CHK2 protein / p-KAP1 protein / p-RPA32 protein / p-p53 protein: Fig 5D
How it was run: as §2

EC d4 [4] = assay: EdU incorporation (S-phase activity); conditions: EC d4 48 h
Procedure: S-phase activity of cells was monitored by measuring EdU incorporation using the EdU-Click 488 assay according to the manufacturer’s protocol. Briefly, cells were pulse-treated with 5-ethynyl-2′-deoxyuridine (EdU) for 3 h. Alexa Fluor 488-conjugated reaction cocktail was added (30 min, RT) and nuclei were counterstained with DAPI. The percentage of EdU-positive area/DAPI-positive area was calculated by fluorescence microscopy (Olympus BX43, 20x objective).

EC d6 [5] = assay: Mitochondrial membrane potential (TMRM-MitoTracker Green); conditions: EC d6 treated 24 h
Procedure: Mitochondrial membrane potential (ΔΨm) was analyzed by live-cell imaging using TMRM-MitoTracker Green co-staining. Cells were seeded and differentiated on Poly-D-Lysine-fibronectine-coated live-imaging dishes. For staining, cells were incubated with 200nM MitoTracker Green (Invitrogen) and 50 nM TMRM (Invitrogen) in DMEM (30 min, 37 °C, 5% CO2). After washing with PBS, live-cell microscopy was performed using a spinning disc confocal microscope (PerkinElmer) equipped with a 60x oil-immersion objective (N.A = 1.49) and a Hamamatsu C9100 camera (1000 × 1000 pixel) (excitation (MitoTracker Green): 488 nm, excitation (TMRM): 561 nm). The cells were kept at 37 °C in OptiMEM supplemented with 10 mM HEPES during imaging. The images were obtained at emission wavelength of 527 nm (W55) and 615 nm (W70) for 488 nm and 561 nm excitation, respectively.

EC d6 [6] = assay: ZO1 tight junction immunofluorescence; conditions: analysed 2 days later
EC d4 [7] = assay: VE-cadherin cell-cell junction immunostaining; conditions: EC d4 treated 48 h
[8] = concentration 1 (Dox 1/B02 1/EST 1)
[9] = concentration 2 (Dox 2/B02 2/EST 2)

Compound: Nc1ccccc1NC(=O)c1ccc(CNC(=O)OCc2cccnc2)cc1 [EST, entinostat]
- susceptibility (cell viability) of EC d4 as compared to both mESC and EC d6 [1]: significant higher
- IC50 (mESC; 24 h treatment): 18.8 µM
- IC50 (mESC; 72 h treatment): 2.6 µM
- H3ac protein ([2]; Fig 1D): 4.6 Fold of mESC
- H4ac protein ([2]; Fig 1D): 1853.2 Fold of mESC
- aTubac (acetylated α-Tubulin) protein ([2]; Fig 1D): 0.9 Fold of mESC
- CHK1 protein [2, 8]: 0.7 Fold of mESC
- RAD51 protein [2, 8]: 1.0 Fold of mESC
- gH2AX protein [2, 8]: 9.1 Fold of mESC
- p-CHK2 protein [2, 8]: 0.6 Fold of mESC
- p-KAP1 protein [2, 8]: 0.0 Fold of mESC
- p-RPA32 protein [2, 8]: 0.8 Fold of mESC
- p-p53 protein [2, 8]: 0.4 Fold of mESC
- CHK1 protein [2, 9]: 1.0 Fold of mESC
- RAD51 protein [2, 9]: 0.9 Fold of mESC
- gH2AX protein [2, 9]: 8.9 Fold of mESC
- p-CHK2 protein [2, 9]: 0.9 Fold of mESC
- p-KAP1 protein [2, 9]: 0.0 Fold of mESC
- p-RPA32 protein [2, 9]: 0.9 Fold of mESC
- p-p53 protein [2, 9]: 0.5 Fold of mESC
- AMPKa protein ([2]; Fig 6E): 0.5 Fold of mESC
- GSK3b protein ([2]; Fig 6E): 2.3 Fold of mESC
- p-p70SK protein ([2]; Fig 6E): 1.6 Fold of mESC
- H3ac protein ([3]; Fig 1D): 7.8 Fold of mESC
- H4ac protein ([3]; Fig 1D): 4083.7 Fold of mESC
- aTubac (acetylated α-Tubulin) protein ([3]; Fig 1D): 1.0 Fold of mESC
- CHK1 protein [3, 8]: 0.6 Fold of mESC
- RAD51 protein [3, 8]: 0.6 Fold of mESC
- gH2AX protein [3, 8]: 1.3 Fold of mESC
- p-CHK2 protein [3, 8]: 0.5 Fold of mESC
- p-KAP1 protein [3, 8]: 0.0 Fold of mESC
- p-RPA32 protein [3, 8]: < 0.1 Fold of mESC
- p-p53 protein [3, 8]: 0.3 Fold of mESC
- CHK1 protein [3, 9]: 0.2 Fold of mESC
- RAD51 protein [3, 9]: 0.1 Fold of mESC
- gH2AX protein [3, 9]: 0.1 Fold of mESC
- p-CHK2 protein [3, 9]: 0.3 Fold of mESC
- p-KAP1 protein [3, 9]: 0.0 Fold of mESC
- p-RPA32 protein [3, 9]: < 0.1 Fold of mESC
- p-p53 protein [3, 9]: 0.3 Fold of mESC
- AMPKa protein ([3]; Fig 6E): 0.7 Fold of mESC
- GSK3b protein ([3]; Fig 6E): 1.7 Fold of mESC
- p-p70SK protein ([3]; Fig 6E): 0.7 Fold of mESC
- S-phase activity (EdU-positive cells) (EC d4 [4]): not
- mitochondrial membrane potential (EC d6 [5]): remained largely unaffected
- ZO1 assembly in treated EC d6 (EC d6 [6]): clearly visible gaps
- VE-cadherin cell-cell junctions in EC d6 differentiated from treated EC d4 (EC d4 [7]): did not trigger defects
